From PubChem BioAssay AID1919016 (Molecular Pharmacology Branch, DTP, NCI, 2023)
Where “and” joins values, the source holds several entries; their conditions need not be identical. Equal values may be shown once.

System: NCI-H196 complex spheroid growth, percent test/control
Assay: Anticancer human tumor NCI-H196 cell line growth inhibition [AhR];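 also: seven days of drug exposure starting three days after plating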;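 as to viability, T/C: 100% = DMSO vehicle control wells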
Settings: for viability, T/C: stronger effect = lower value
How it was run: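 Complex tumor spheroids co-cultured with HUVEC and human MSC stroma; AhR antagonists tested in combination with standard-of-care and investigational agents. Top concentration at or near clinical Cmax (else 10 microM), half-log dilutions; growth expressed as percent test/control.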

[1] = curve of first compound, second compound 0.1 µM
[2] = curve of first compound, second compound 0.316 µM
[3] = curve of first compound, second compound 1 µM
[4] = curve of first compound, second compound 3.16 µM
[5] = curve of first compound, second compound 10 µM
[6] = second compound 0.1 µM, first compound 0.0316 µM
[7] = second compound 0.1 µM, first compound 0.1 µM
[8] = second compound 0.1 µM, first compound 0.316 µM
[9] = second compound 0.1 µM, first compound 1 µM
[10] = second compound 0.1 µM, first compound 3.16 µM
[11] = second compound 0.1 µM, first compound 10 µM
[12] = second compound 0.316 µM, first compound 0.0316 µM
[13] = second compound 0.316 µM, first compound 0.1 µM
[14] = second compound 0.316 µM, first compound 0.316 µM
[15] = second compound 0.316 µM, first compound 1 µM
[16] = second compound 0.316 µM, first compound 3.16 µM
[17] = second compound 0.316 µM, first compound 10 µM
[18] = second compound 1 µM, first compound 0.0316 µM
[19] = second compound 1 µM, first compound 0.1 µM
[20] = second compound 1 µM, first compound 0.316 µM
[21] = second compound 1 µM, first compound 1 µM
[22] = second compound 1 µM, first compound 3.16 µM
[23] = second compound 1 µM, first compound 10 µM
[24] = second compound 3.16 µM, first compound 0.0316 µM
[25] = second compound 3.16 µM, first compound 0.1 µM
[26] = second compound 3.16 µM, first compound 0.316 µM
[27] = second compound 3.16 µM, first compound 1 µM
[28] = second compound 3.16 µM, first compound 3.16 µM
[29] = second compound 3.16 µM, first compound 10 µM
[30] = second compound 10 µM, first compound 0.0316 µM
[31] = second compound 10 µM, first compound 0.1 µM
[32] = second compound 10 µM, first compound 0.316 µM
[33] = second compound 10 µM, first compound 1 µM
[34] = second compound 10 µM, first compound 3.16 µM
[35] = second compound 10 µM, first compound 10 µM

`O=C(c1cc(Cc2n[nH]c(=O)c3ccccc23)ccc1F)N1CCN(C(=O)C2CC2)CC1` + Cc1ccccc1N=Nc1ccc(NC(=O)c2ccnn2C)c(C)c1 was tested, and the IC50 [1] was > 10 µM, the IC50 [2] was > 10 µM and the IC50 [3] was > 10 µM. The IC50 [4] was > 10 µM, the IC50 [5] was > 10 µM and the viability, T/C [6] was 109%. For the same compound, the viability, T/C [7] was 101%, the viability, T/C [8] was 107% and the viability, T/C [9] was 94.1%. For the same compound, the viability, T/C [10] was 91.4%, the viability, T/C [11] was 102% and the viability, T/C [12] was 99.5%. It also gave a viability, T/C [13] of 103%, a viability, T/C [14] of 102% and a viability, T/C [15] of 93.1%. It also gave a viability, T/C [16] of 108%, a viability, T/C [17] of 102% and a viability, T/C [18] of 99.4%. It also gave a viability, T/C [19] of 107%, a viability, T/C [20] of 98.3% and a viability, T/C [21] of 99.1%. The viability, T/C [22] was 100%, the viability, T/C [23] was 93.6% and the viability, T/C [24] was 90.8%. For the same compound, the viability, T/C [25] was 105%, the viability, T/C [26] was 95.9% and the viability, T/C [27] was 108%. It also gave a viability, T/C [28] of 96.9%, a viability, T/C [29] of 101% and a viability, T/C [30] of 87.2%. The viability, T/C [31] was 90.1%, the viability, T/C [32] was 99.1% and the viability, T/C [33] was 98.8%. For the same compound, the viability, T/C [34] was 103% and the viability, T/C [35] was 83.4%.
`CC1COCCN1c1cc(C2(S(C)(=N)=O)CC2)nc(-c2ccnc3[nH]ccc23)n1` (configuration not stated) was tested, and the viability, T/C (compound 0.0316 µM) was 99.9% and 98.5% and 104%, the viability, T/C (compound 0.1 µM) was 100% and 104% and 96% and the viability, T/C (compound 0.316 µM) was 104% (2×) and 95.2%. For the same compound, the viability, T/C (compound 1 µM) was 88% and 95.2% and 97.4%, the viability, T/C (compound 3.16 µM) was 97.7% and 93.7% and 85% and the viability, T/C (compound 10 µM) was 69.4% and 81% and 77.6%. For the same compound, the IC50 (curve of compound) was > 10 µM.
For `Nc1ncn(C2CC(O)C(CO)O2)c(=O)n1` (configuration not stated), the viability, T/C (compound 0.00316 µM) was 110% and 113% and 104%, the viability, T/C (compound 0.01 µM) was 96.1% and 116% and 107% and the viability, T/C (compound 0.0316 µM) was 93.2% and 102% and 110%. For the same compound, the viability, T/C (compound 0.1 µM) was 97.1% and 113% and 103%, the viability, T/C (compound 0.316 µM) was 105% and 124% and 93.8% and the viability, T/C (compound 1 µM) was 116% and 104% and 105%. For the same compound, the IC50 (curve of compound) was > 1 µM.
In the case of `COc1cc(Nc2ncc3c(n2)-c2ccc(Cl)cc2C(c2c(F)cccc2OC)=NC3)ccc1C(=O)O` + Cc1cncc(-c2nc(NCCc3c[nH]c4ccccc34)c3ncn(C(C)C)c3n2)c1, the IC50 [1] is reported as > 10 µM, the IC50 [2] is reported as > 10 µM and the IC50 [3] is reported as > 10 µM. The IC50 [4] was > 10 µM, the IC50 [5] was > 10 µM and the viability, T/C [6] was 96%. For the same compound, the viability, T/C [7] was 99.5%, the viability, T/C [8] was 98.4% and the viability, T/C [9] was 103%. The viability, T/C [10] was 118%, the viability, T/C [11] was 153% and the viability, T/C [12] was 98.7%. For the same compound, the viability, T/C [13] was 94.3%, the viability, T/C [14] was 109% and the viability, T/C [15] was 111%. For the same compound, the viability, T/C [16] was 131%, the viability, T/C [17] was 129% and the viability, T/C [18] was 94.1%. It also gave a viability, T/C [19] of 102%, a viability, T/C [20] of 120% and a viability, T/C [21] of 114%. For the same compound, the viability, T/C [22] was 104%, the viability, T/C [23] was 148% and the viability, T/C [24] was 101%. It also gave a viability, T/C [25] of 104%, a viability, T/C [26] of 127% and a viability, T/C [27] of 115%. The viability, T/C [28] was 118%, the viability, T/C [29] was 145% and the viability, T/C [30] was 83.1%. It also gave a viability, T/C [31] of 91.8%, a viability, T/C [32] of 106% and a viability, T/C [33] of 97.7%. The viability, T/C [34] was 104% and the viability, T/C [35] was 143%.
In the case of `CC(CO)NC(=O)c1cc(-c2ccc(Cl)cc2)nn(-c2cnn(C)c2)c1=O` (configuration not stated), the viability, T/C (compound 1 µM) is reported as 105% [middle of 21 runs], the viability, T/C (compound 3.16 µM) is reported as 106% [middle of 19 runs] and the IC50 (compound alone, run of 08/08/2022) is reported as > 10 µM.
